For seven compounds, GI50 and TGI results are on record in PubChem BioAssay (NCI).

Values joined by “and” are separate entries in the source; they are usually repeats but may differ in a detail not shown here. Equal entries are not always repeated.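 Results reflect a 48-hour exposure of cells in 96-well plates to compound at five concentrations. GI50 marks 50% less growth. The concentration for full growth arrest is given as TGI.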

Holding throughout (assay): inhibition of tumour cell growth, NCI panel, 48 h
For test [1], the system named is EKVX NSCLC.
Test [2] has as its system RXF 393 renal.
Test [3] concerns M14 melanoma.
The test system of test [4] is HCC-2998 colon.
Test [5] has as its system SK-MEL-2 melanoma.
The test system of test [6] is NCI-H23 lung.
The subject of test [7] is SK-MEL-5 melanoma.
The test system of test [8] is OVCAR-5 ovarian.
Test [9] relates to SK-OV-3 ovarian.
Test [10] deals with T-47D breast.

Turning to `CC[C@]12C=CCN3CC[C@]4(C(=C(C(=O)OC)C1)Nc1cc5c(cc14)[C@@H]1[C@H](O5)[C@@H](O)[C@@]4(CC)CC(C(=O)OC)=C5Nc6ccccc6[C@@]56CCN1[C@@H]46)[C@@H]32`, the GI50 was 0.927 µM and 0.748 µM in test [1]; 0.523 µM and 0.456 µM in [2]; 0.517 µM and 0.385 µM in [3]; 0.0292 µM and 0.0366 µM in test [4]; 1.13 µM and 1.18 µM in test [5]; 0.577 µM and 0.316 µM in test [6]. The GI50 in test [7] is 0.662 µM and 0.348 µM; in test [8], 0.749 µM and 0.826 µM; in test [9] it was 1.09 µM; in test [10], 0.335 µM. Also, the TGI is 25 µM and 33.8 µM in test [1]; 3.76 µM and 2.56 µM in test [2]; 25 µM and > 100 µM in [3]; 2.63 µM and 1.26 µM in test [4]; 25 µM and > 100 µM in [5]; 4.51 µM and 1.46 µM in test [6]. For the same compound, the TGI in [7] was 4.01 µM and 1.48 µM; in [8], 25 µM and 21.3 µM; in test [9], 25 µM; in test [10], above 100 µM.

Regarding `C=C(C(=O)c1ccccc1)C(NC(C)(C)C)c1ccccc1` (stereo not given), the GI50 in [1] was 3.53 µM; in test [2], 1.21 µM; in test [3], 1.87 µM; in test [4], 1.81 µM; in test [5], 1.88 µM; in test [6], 1.77 µM. Besides, the GI50 was 1.45 µM in [7], 2.37 µM in test [8], 3.76 µM in test [9] and 2.44 µM in [10]. In addition, the TGI in test [1] amounted to 13.7 µM; in [2], 2.69 µM; in test [3], 4.65 µM; in test [4], 3.38 µM; in test [5] it was 4.78 µM; in test [6] it was 4.93 µM. Moreover, the TGI in test [7] came to 2.82 µM; in test [8], 4.65 µM; in [9], 20.1 µM; in test [10] it was 6.78 µM.

`Cc1[nH]c(C(=O)Nc2cccc(OC3CCNCC3)c2)c(Cl)c1Cl`: the GI50 in test [1] was 1.57 µM; in test [2], 1.74 µM; in test [3], 1.8 µM; in test [4] it was 1.76 µM; in test [5], 2.14 µM; in test [6], 2.14 µM. The GI50 was 1.78 µM in test [7], 1.63 µM in [8], 2.07 µM in test [9] and 1.96 µM in [10]. Also, the TGI turned out to be 3.39 µM in test [1]; 3.46 µM in [2]; 3.52 µM in [3]; 3.31 µM in [4]; 4.54 µM in test [5]; 5.54 µM in test [6]. Besides, the TGI in [7] worked out at 3.23 µM; in test [8], 3.11 µM; in test [9], 5.09 µM; in [10], 4.52 µM.

Take `Cc1ccc(NC(=S)NNC(=S)Nc2ccc(C)cc2)cc1`: the GI50 in test [1] is 17.9 µM; in test [2], 5.56 µM; in [3], 3.54 µM; in [4], 15.5 µM; in test [5], 2.66 µM; in [6], 5.98 µM. Besides, the GI50 in [7] was 4.36 µM; in [8] it was above 100 µM; in test [9], 17.3 µM; in test [10] it was 14.4 µM. Moreover, the TGI is above 100 µM in [1]; above 100 µM in [2]; above 100 µM in [3]; above 100 µM in test [4]; 8.68 µM in test [5]; above 100 µM in [6]. The TGI in test [7], in test [8], in test [9] and in test [10] was above 100 µM each time.

Consider `COc1ccc(-c2nc3sccn3c2-c2ccnc(NCCNS(=O)(=O)c3ccc(C(F)(F)F)cc3)n2)cc1`, for which the GI50 in [1] is 4.04 µM; in [2], 2.66 µM; in [3], 0.69 µM; in [4], 4.6 µM; in test [5], 3.04 µM; in test [6], 3.56 µM. In addition, the GI50 is 1.24 µM in test [7], 9.38 µM in [8], 4.44 µM in test [9] and 1.69 µM in test [10]. Moreover, the TGI in test [1] was above 100 µM; in test [2] it was 63.2 µM; in test [3] it was 3.25 µM; in [4], above 100 µM; in test [5] it was 9.26 µM; in test [6], 62.3 µM. Also, the TGI is 2.52 µM in test [7], above 100 µM in test [8], above 100 µM in test [9] and above 100 µM in test [10].

On to `COc1ccc(N=Nc2ccc(O)c(=O)cc2)cc1`, for which the GI50 was 4.3 µM in [1]; 3.71 µM in test [2]; 2.22 µM in test [3]; 4.04 µM in [4]; 5.01 µM in test [5]; 3.02 µM in [6]. Also, the GI50 is 3.34 µM in test [7], 5.89 µM in [8], 4.58 µM in test [9] and 2.64 µM in test [10]. In addition, the TGI in test [1] was above 100 µM; in [2] it was above 100 µM; in test [3], 7.42 µM; in test [4], above 100 µM; in [5] it was 41.1 µM; in test [6], above 100 µM. The TGI in test [7] was 16.2 µM; in [8], above 100 µM; in test [9] it was above 100 µM; in test [10] it was above 100 µM.

In the case of `CC(C)[C@@]12C[C@@H](OC(=O)COC(=O)c3ccccc3)[C@@](C)(O1)[C@@H]1CC[C@@H](C)[C@H]1[C@@H]2OC(=O)/C=C/c1ccccc1`, the GI50 in [1] was above 100 µM; in test [2] it was 0.284 µM; in [3] it was above 100 µM; in test [4], above 100 µM; in test [5] it was above 100 µM; in test [6], above 100 µM. Besides, the GI50 in test [7] was above 100 µM; in test [8], above 100 µM; in [9], above 100 µM; in [10], above 34.6 µM. Also, the TGI in test [1] was above 100 µM; in test [2] it was above 8.44 µM; in test [3], above 100 µM; in [4], above 100 µM; in test [5], above 100 µM; in test [6], above 100 µM. Further, the TGI in [7], in test [8], in [9] and in [10] was above 100 µM in each case.
